Reference: patent US6835382B2, “Ii peptide therapeutics to enhance antigen presentation” (University of Massachusetts, priority 1996, dated 2004)
Positions of bridges follow the written chain, without caps; N, C: chain ends. Non-standard residues stand in square brackets, D forms with d. No end group written: not given here. hArg = N=C(N)NCCCC[C@H](N)C(=O)O; Cit = NC(=O)NCCC[C@H](N)C(=O)O

biological target: T1, murine E^d MHC class II allele (Mus musculus, UniProt P01904+P01915); test: processed antigen assay, E^d allele (APC pulsed with native HEL); assay type: cell-based; set-up: The A20 and CH27 B cell lymphoma lines express H-2^d and H-2^k alleles, respectively; endogenous in cells; host or cells: A20 B cell lymphoma (mitomycin C-treated or paraformaldehyde-fixed); conditions: Table 31; native HEL prepulse 10 μM; AE peptide 64 μM; supernatant dilution 1:4
T1 sequence (P01904 26-255): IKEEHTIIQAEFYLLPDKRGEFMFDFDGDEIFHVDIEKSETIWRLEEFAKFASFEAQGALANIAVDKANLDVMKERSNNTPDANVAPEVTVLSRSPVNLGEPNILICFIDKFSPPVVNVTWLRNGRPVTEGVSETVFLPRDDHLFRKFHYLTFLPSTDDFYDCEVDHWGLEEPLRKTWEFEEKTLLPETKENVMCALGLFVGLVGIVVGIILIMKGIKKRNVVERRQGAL
T1 sequence (P01915 27-264 limits assumed): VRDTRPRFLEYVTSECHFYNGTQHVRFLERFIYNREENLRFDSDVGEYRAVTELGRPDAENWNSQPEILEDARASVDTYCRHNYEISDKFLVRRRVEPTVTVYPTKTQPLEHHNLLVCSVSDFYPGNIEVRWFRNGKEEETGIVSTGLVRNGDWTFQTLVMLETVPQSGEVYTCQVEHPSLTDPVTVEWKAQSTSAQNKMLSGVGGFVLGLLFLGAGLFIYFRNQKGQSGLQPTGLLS
Procedure: In a third type of assay, the “processed antigen assay”, certain of the AE101 series of peptides inhibit stimulation of specific T cell hybridomas by antigenic peptides which are derived from the endogenous processing of a native protein antigen. This assay, which is related to the peptide prepulse assay, is performed by incubating APC with native protein antigen for 8 h, after which the pulsed APC are washed and treated with mitomycin C. Those pulsed APC are then combined with AE101 series peptides and T cell hybridomas and are incubated for 24 h. After that incubation, an aliquot of the culture supernatant is transferred to a second culture to measure T cell stimulation, as reflected in the effect of released interleukins on the growth of an interleukin-dependent, indicator cell line. During the 8 h incubation with native protein antigen, the protein antigen is taken into the APC. The native protein enters the processing pathway within the APC, where it is enzymatically cleaved to peptide fragments. Those peptide fragments with high affinity for the particular MHC class II molecules produced by the APC form antigenic peptide/MHC class II complexes which are transported to the cell surface. At the cell surface, the MHC class II molecules are contacted by the AE101 peptides, which cause the release of the antigenic peptide by the same mechanism proposed for the “peptide prepulse” assay above.
The “processed antigen assay” was carried out under essentially the same conditions as the “peptide prepulse assay”, with the following modifications. Untreated APC were incubated at 1×10^6/mL in 24-well plates (1 mL/well) with native protein antigen for 8 h. Following that incubation, the pulsed APC were washed, treated with mitomycin C, and washed again. AE101 series peptide was added at 64 μM, 16 μM, 4 μM, and 1 μM concentrations for 24 h in the presence of the T cell hybridoma specific for the antigenic peptide. Interleukin release from these cultures was measured by proliferation of HT-2 cells to interleukins in supernatants transferred from the primary culture. The baseline T cell response was measured by culturing T hybridoma cells with the native antigen-prepulsed APC in the absence of AE101 series peptides.
The “processed antigen assay” was carried out under essentially the same conditions as the “peptide prepulse” assay, with the following modifications. Untreated APC were incubated at 1×10^6/mL in 24-well plates (1 mL/well) with native protein antigen for 8 h. Following incubation, the pulsed APC were washed, treated with mitomycin C, and were washed again. The assay conditions were then as described for “peptide prepulse” above. The baseline T cell response was measured by culturing T hybridoma cells with the native antigen-prepulsed APC in the absence of AE101 peptides.
Table 2.9: Activities of substitution series at Leucine^80 in AE114 in a processed antigen assay. […] The results in this assay constitute, relatively, a mirror image of the result in the simultaneous assay (Example 1, Table 7) and parallel those of the antigenic peptide prepulse assay (Example 5, Table 24). Untreated APC were incubated with native HEL, instead of antigenic peptide, for 8 h. After incubation, the pulsed cells were washed and mitomycin C treated before being cocultured with AE-peptides and T cell hybridomas. Wells containing only T cells and native HEL-prepulsed APC were used to determine the Baseline response, or 1, in the absence of AE peptides. The concentration of AE peptide used was 64 μM for these assays. The supernatant dilutions used in the HT-2 cell assay were 1:4 (first value) and 1:8 (second value).

First: Ac-A[Cit]NKNPK-NH2 [AE351]
Second: Ac-LR Orn K HArg PK-NH2 [AE340]
The “T cell response relative to baseline (None = 1.00), E^d” value of the first is higher: 0.87 for the first, 0.16 for the second.

Ac-LRMKNPF-NH2 [AE350] was tested, and the “T cell response relative to baseline (None = 1.00), E^d” value was 0.56.

same assay, conditions: Table 32; native HEL prepulse 20 μM; AE peptide 64 μM; supernatant dilution 1:4

Compared with Ac-FK HArg MYP Cit-NH2 [AE371], Ac-LKMKYPK-NH2 [AE362] is lower in “T cell response relative to baseline (None = 1.0), E^d” value: 0.61 for the first, 0.58 for the second.

First: Ac-LRLKYPN-NH2 [AE368]
Second: Ac-LK HArg KYPK-NH2 [AE363]
The “T cell response relative to baseline (None = 1.0), E^d” value of the first is lower: 0.55 for the first, 0.75 for the second.

First: Ac-LRMMYP[Cit]-NH2 [AE367]
Second: Ac-L[hArg]LKYPK-NH2 [AE361]
The “T cell response relative to baseline (None = 1.0), E^d” value of the first is higher: 0.69 for the first, 0.51 for the second.

Compared with Ac-LR HArg MYPK-NH2 [AE365], Ac-LRMKYPN-NH2 [AE370] is lower in “T cell response relative to baseline (None = 1.0), E^d” value: 0.65 for the first, 0.55 for the second.

First: Ac-LR HArg KYP Cit-NH2 [AE366]
Second: Ac-L[hArg]MKYPK-NH2 [AE360]
The “T cell response relative to baseline (None = 1.0), E^d” value of the first is lower: 0.53 for the first, 0.64 for the second.

With Ac-LRMKYP[Cit]-NH2 [AE364] the “T cell response relative to baseline (None = 1.0), E^d” value was 0.56.

same assay, conditions: Table 34; AE peptide 64 μM; native HEL 10 μM prepulse; supernatant 1:8

Compared with Ac-LRMKLPK (lactam 4-C) [AE382], “cyclic LRMKLPK (bridge (positions not given here); also: cyclic, ring type not given here) [AE381, “head-to-tail” cyclization from the amino-terminus to the carboxyl-terminus of AE114]” is lower in “Activity in processed antigen assay, E^d (baseline = 1.0)” value: 0.61 for the first, 0.18 for the second.
